In paper PMC5399635 (The Journal of Pharmacology and Experimental Therapeutics, 2017):

What was measured:
human κ-opioid receptor = molecular target: T1, human κ-opioid receptor (Homo sapiens, UniProt P41145); experiment: [35S]GTPγS functional assay, κ-opioid receptor (HEK-293 membranes); type: biochemical
T1 construct: expressed in transfected cells; host or cells: HEK-293 cells
Method: These were single experiments conducted across a range of 12 half-log concentrations, from […], with 1 replicate per concentration; experimental conditions were as described for [^35S]GTPγS binding experiments with human recombinant µ-opioid receptors. Functional activity at κ-opioid receptors was also determined in an isolated tissue preparation from the rabbit vas deferens, using methods detailed previously ([Oka et al., 1981]).

[1] = test system: panel of more than 300 receptors, ion channels, transporters, and enzymes; experiment: Binding screen across a panel of more than 300 targets; details: 10 µM; apart from opioid receptors; data not shown

T1 sequence (P41145 whole entry): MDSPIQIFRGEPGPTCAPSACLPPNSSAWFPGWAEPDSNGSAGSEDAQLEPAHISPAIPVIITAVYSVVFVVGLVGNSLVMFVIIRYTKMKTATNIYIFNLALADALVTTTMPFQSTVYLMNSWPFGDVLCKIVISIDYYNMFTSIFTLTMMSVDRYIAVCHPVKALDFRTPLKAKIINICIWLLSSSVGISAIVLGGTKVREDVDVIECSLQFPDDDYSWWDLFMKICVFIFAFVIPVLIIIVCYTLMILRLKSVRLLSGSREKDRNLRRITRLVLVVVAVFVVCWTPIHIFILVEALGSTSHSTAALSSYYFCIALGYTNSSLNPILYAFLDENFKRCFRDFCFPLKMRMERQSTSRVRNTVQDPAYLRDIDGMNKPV

Question: C=CCN1CC[C@]23c4c5ccc(O)c4O[C@H]2[C@@H](OCCOCCOCCOCCOCCOCCOCCOC)CC[C@@]3(O)[C@H]1C5 [Naloxegol, naloxegol] was tested. Which IC50 (human κ-opioid receptor; U69593 100 nM, read-out: IC50 (inhibition of response to U69593)) did it give?
Answer: 37 nM

Question: What about the inhibition at 100 µM (human κ-opioid receptor; at 100 µM, read-out: maximal inhibition of response to U69593) of the same molecule?
Answer: 62%

Question: What about the EC50 (human κ-opioid receptor; read-out: EC50 (agonism)) of the same molecule?
Answer: 47 nM

Question: What about the Emax (human κ-opioid receptor; read-out: maximal effect, agonism relative to U69593) of the same molecule?
Answer: 39%

Question: What about the “inhibition of binding across panel” value [1] of the same molecule?
Answer: ≤ 30%
